Assay results from PubChem BioAssay (NCI).
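Five compound concentrations were applied to cells in 96-well plates for 48 hours; endpoints were derived by simple linear interpolation of the resulting dose-response curve. Definition used: TGI = concentration required for complete inhibition of growth.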

How the values were obtained:
Experiment in all cases: inhibition of tumour cell growth, NCI panel, 48 h
HCC-2998 colon = system: HCC-2998 colon
UO-31 renal = system: UO-31 renal
M14 melanoma = system: M14 melanoma
SK-MEL-5 melanoma = system: SK-MEL-5 melanoma
SNB-19 CNS = system: SNB-19 CNS
UACC-257 melanoma = system: UACC-257 melanoma
RXF 393 renal = system: RXF 393 renal
OVCAR-4 ovarian = system: OVCAR-4 ovarian
U251 CNS = system: U251 CNS
NCI/ADR-RES ovarian = system: NCI/ADR-RES ovarian
MDA-N = system: MDA-N
CAKI-1 renal = system: CAKI-1 renal
BT-549 breast = system: BT-549 breast
EKVX NSCLC = system: EKVX NSCLC
TK-10 renal = system: TK-10 renal
HOP-62 NSCLC = system: HOP-62 NSCLC
NCI-H460 lung = system: NCI-H460 lung
NCI-H226 lung = system: NCI-H226 lung
NCI-H23 lung = system: NCI-H23 lung
OVCAR-5 ovarian = system: OVCAR-5 ovarian
K-562 leukemia = system: K-562 leukemia
HCT-116 colon = system: HCT-116 colon
SK-MEL-28 melanoma = system: SK-MEL-28 melanoma
MOLT-4 leukemia = system: MOLT-4 leukemia
CCRF-CEM leukemia = system: CCRF-CEM leukemia
MDA-MB-435 = system: MDA-MB-435
HCT-15 colon = system: HCT-15 colon
MCF7 breast = system: MCF7 breast
UACC-62 melanoma = system: UACC-62 melanoma
SW-620 colon = system: SW-620 colon
HOP-92 NSCLC = system: HOP-92 NSCLC
SK-MEL-2 melanoma = system: SK-MEL-2 melanoma
SR leukemia = system: SR leukemia
ACHN renal = system: ACHN renal
T-47D breast = system: T-47D breast
SF-539 CNS = system: SF-539 CNS
SF-268 CNS = system: SF-268 CNS
DU-145 prostate = system: DU-145 prostate
SF-295 CNS = system: SF-295 CNS
OVCAR-3 ovarian = system: OVCAR-3 ovarian
KM12 colon = system: KM12 colon
786-0 renal = system: 786-0 renal
NCI-H522 lung = system: NCI-H522 lung
COLO 205 colon = system: COLO 205 colon
SNB-75 CNS = system: SNB-75 CNS
LOX IMVI melanoma = system: LOX IMVI melanoma
OVCAR-8 ovarian = system: OVCAR-8 ovarian
PC-3 prostate = system: PC-3 prostate
IGROV1 ovarian = system: IGROV1 ovarian
HT29 colon = system: HT29 colon
SN12C renal = system: SN12C renal
HL-60(TB) leukemia = system: HL-60(TB) leukemia
SK-OV-3 ovarian = system: SK-OV-3 ovarian
A498 renal = system: A498 renal
MDA-MB-231 breast = system: MDA-MB-231 breast
RPMI-8226 leukemia = system: RPMI-8226 leukemia
A549 NSCLC = system: A549 NSCLC
MALME-3M melanoma = system: MALME-3M melanoma

COc1ccc(C2CC(=O)CC(c3ccc(OC)cc3)C23C(=O)NC(=S)NC3=O)cc1 (stereo not drawn)
TGI (HCC-2998 colon): > 100 µM | TGI (UO-31 renal): > 100 µM | TGI (M14 melanoma): > 100 µM | TGI (SK-MEL-5 melanoma): > 100 µM | TGI (SNB-19 CNS): > 100 µM | TGI (UACC-257 melanoma): > 100 µM | TGI (RXF 393 renal): > 100 µM | TGI (OVCAR-4 ovarian): > 100 µM | TGI (U251 CNS): > 100 µM | TGI (NCI/ADR-RES ovarian): > 100 µM | TGI (MDA-N): > 100 µM | TGI (CAKI-1 renal): > 100 µM | TGI (BT-549 breast): > 100 µM | TGI (EKVX NSCLC): > 100 µM | TGI (TK-10 renal): > 100 µM | TGI (HOP-62 NSCLC): > 100 µM | TGI (NCI-H460 lung): > 100 µM | TGI (NCI-H226 lung): > 100 µM | TGI (NCI-H23 lung): > 100 µM | TGI (OVCAR-5 ovarian): > 100 µM | TGI (K-562 leukemia): > 100 µM | TGI (HCT-116 colon): > 100 µM | TGI (SK-MEL-28 melanoma): > 100 µM | TGI (MOLT-4 leukemia): > 100 µM | TGI (CCRF-CEM leukemia): > 100 µM | TGI (MDA-MB-435): > 100 µM | TGI (HCT-15 colon): > 100 µM | TGI (MCF7 breast): > 100 µM | TGI (UACC-62 melanoma): > 100 µM | TGI (SW-620 colon): > 100 µM | TGI (HOP-92 NSCLC): > 100 µM | TGI (SK-MEL-2 melanoma): > 100 µM | TGI (SR leukemia): > 100 µM | TGI (ACHN renal): > 100 µM | TGI (T-47D breast): > 100 µM | TGI (SF-539 CNS): > 100 µM | TGI (SF-268 CNS): > 100 µM | TGI (DU-145 prostate): > 100 µM | TGI (SF-295 CNS): > 100 µM | TGI (OVCAR-3 ovarian): > 100 µM | TGI (KM12 colon): > 100 µM | TGI (786-0 renal): > 100 µM | TGI (NCI-H522 lung): > 100 µM | TGI (COLO 205 colon): > 100 µM | TGI (SNB-75 CNS): > 100 µM | TGI (LOX IMVI melanoma): > 100 µM | TGI (OVCAR-8 ovarian): > 100 µM | TGI (PC-3 prostate): > 100 µM | TGI (IGROV1 ovarian): > 100 µM | TGI (HT29 colon): > 100 µM | TGI (SN12C renal): > 100 µM | TGI (HL-60(TB) leukemia): > 100 µM

N#Cc1c(C#N)c(-c2ccco2)n(-c2ccccc2)c1N
TGI (HCC-2998 colon): > 100 µM | TGI (UO-31 renal): > 100 µM | TGI (M14 melanoma): > 100 µM | TGI (SK-MEL-5 melanoma): > 100 µM | TGI (SK-OV-3 ovarian): > 100 µM | TGI (SNB-19 CNS): > 100 µM | TGI (UACC-257 melanoma): > 100 µM | TGI (RXF 393 renal): > 100 µM | TGI (OVCAR-4 ovarian): > 100 µM | TGI (U251 CNS): > 100 µM | TGI (NCI/ADR-RES ovarian): > 100 µM | TGI (MDA-N): > 100 µM | TGI (CAKI-1 renal): > 100 µM | TGI (BT-549 breast): > 100 µM | TGI (EKVX NSCLC): > 100 µM | TGI (TK-10 renal): > 100 µM | TGI (HOP-62 NSCLC): > 100 µM | TGI (NCI-H226 lung): > 100 µM | TGI (NCI-H23 lung): > 100 µM | TGI (OVCAR-5 ovarian): > 100 µM | TGI (K-562 leukemia): > 100 µM | TGI (HCT-116 colon): > 100 µM | TGI (MOLT-4 leukemia): > 100 µM | TGI (CCRF-CEM leukemia): > 100 µM | TGI (MDA-MB-435): > 100 µM | TGI (HCT-15 colon): > 100 µM | TGI (MCF7 breast): > 100 µM | TGI (UACC-62 melanoma): > 100 µM | TGI (SW-620 colon): > 100 µM | TGI (A498 renal): > 100 µM | TGI (HOP-92 NSCLC): > 100 µM | TGI (SK-MEL-2 melanoma): > 100 µM | TGI (SR leukemia): > 100 µM | TGI (ACHN renal): > 100 µM | TGI (T-47D breast): > 100 µM | TGI (SF-539 CNS): > 100 µM | TGI (SF-268 CNS): > 100 µM | TGI (DU-145 prostate): > 100 µM | TGI (MDA-MB-231 breast): > 100 µM | TGI (RPMI-8226 leukemia): > 100 µM | TGI (SF-295 CNS): > 100 µM | TGI (OVCAR-3 ovarian): > 100 µM | TGI (KM12 colon): > 100 µM | TGI (786-0 renal): > 100 µM | TGI (NCI-H522 lung): > 100 µM | TGI (COLO 205 colon): > 100 µM | TGI (SNB-75 CNS): 84.4 µM | TGI (LOX IMVI melanoma): > 100 µM | TGI (OVCAR-8 ovarian): 73.1 µM | TGI (PC-3 prostate): > 100 µM | TGI (IGROV1 ovarian): > 100 µM | TGI (A549 NSCLC): > 100 µM | TGI (HT29 colon): > 100 µM | TGI (SN12C renal): > 100 µM | TGI (HL-60(TB) leukemia): > 100 µM | TGI (MALME-3M melanoma): > 100 µM
